Measurements taken from PMC9088311, “Cyclic Thiosulfonates for Thiol-Mediated Uptake: Cascade Exchangers, Transporters, Inhibitors” (JACS Au, 2022).
≈ marks a conversion by molar mass, not a printed value. Where “and” joins values, the source holds several entries; their conditions need not be identical. Equal values may be shown once.

How the values were obtained:
HK cells, transporter 31 = test: HCHT imaging: inhibition of cytosolic delivery of ETP transporter 31; format: cell-based, Human; details: co-incubation (C), inhibitor 1 h; for IC50 / IC15: Homo sapiens, 1 h; for IC50: read-out: IC50 (concentration needed to reach 50% inhibition), transporter 31 10 μM; for IC15: read-out: MIC (concentration needed to reach 15% inhibition), transporter 31 10 μM; for MIC (concentration needed to reach 15% inhibition): transporter 31 10 μM
Procedure: (§1) Uptake inhibition was measured by the automated HCHT imaging used already to elaborate on cytosolic delivery. For inhibitor screening, HK cells in multiwell plates were incubated with increasing concentrations of inhibitors, followed by fluorescent transporters 28, 31, and 32 at a constant concentration. […] If inhibitors are removed before the addition of transporters 28, 31, and 32, the method is referred to as “pre-incubation”. This is of interest to minimize exchange between the transporter and the inhibitor but is often problematic because dynamic covalent exchange between the inhibitor and cellular target can also be reversed and thus lost. The complementary “co-incubation” operates without inhibitor removal before the addition of transporters 28, 31, and 32.
(§2) 536/40 nm emission filter, and red with 531/40 nm excitation filter and 593/40 nm emission […]
(§3) 4.3. HCHT Inhibitor Screening
(§4) Pre-Incubation Method. As in ref. S1. HeLa Kyoto cells were seeded at 8 ×10^4 cells/mL in FluoroBrite DMEM + 10% FBS on μ-Plate 96-well Black ibiTreat sterile and incubated at 37 °C with 5% CO 2 for 24 h. Then, the medium was removed and cells were washed with PBS ([…]), fresh FluoroBrite DMEM medium (4 × 150 μL/well) was added into the cells using a plate washer (Biotek EL406®), keeping a final volume of 135 μL/well. Different concentrations of the inhibitors were prepared by serial dilution with 10% final concentration DMSO (10× in PBS). The solution of compounds 4 and 33 was prepared final DMSO concentration of 10% in each dilution (10× in PBS). These inhibitor solutions (10× final concentration), transporter 28 (10× in DMEM), transporters 31 and 32 (10× in PBS) a solution of HOE (100 μg/mL) and PI (10 μg/mL) in PBS were prepared freshly in a 96-well V-bottom plate before adding to the cells. The inhibitor solutions from the V-bottom plate were added to the cells (15 μL/well) in a final volume of 150 μL/well using an electronic multichannel pipette and cells were incubated for 1 h at 37 °C with 5% CO 2. After this incubation, cells were washed again with PBS and DMEM using the plate washer (in the way mentioned above), and transporter 28 , 31 or 32 from the V-bottom plate was added (15 μL/well) to the cells in a final volume of 150 μL/well. A final concentration of each transporter 28 , 31 and 32 was 5 μM, 10 μM and 0.5 μM, respectively, except for the control wells, where only PBS was added (15 μL/well). Cells treated with transporter 28 or 31 were incubated for 30 min, and cells treated with 32 were incubated for 2 h at 37 °C with 5% CO 2. After that, the cells were washed with PBS and DMEM using the plate washer, and the solution of Hoechst 33342 and PI from the V-bottom plate was added (15 μL/well) to the cells in a final volume of 150 μL/well. After 15 min of incubation at 37 °C with 5% CO 2, the cells were washed and kept in clean FluoroBrite
(§5) DMEM. For live cell imaging, samples were kept at 37 °C with 5% CO 2 during the microscope imaging. The distribution of fluorescence stained cells was analyzed without fixing using an […]

HeLa Kyoto cells = test: Relative viability (HOE/PI) in HCHT screening
Procedure: One advantage of HCHT imaging of cellular uptake compared to flow cytometry[38],[42],[43] is that it simultaneously gives information on toxicity and intracellular localization. […] Information on the intracellular localization of reporters can be quantified through segmentation of cellular compartments stained with specific markers.[52]
as §1
Relative cell viability ( RV) for each condition in the presence of inhibitors was calculated […]
of the relative cell viability ( RVrel) to the concentration of inhibitors ( cinhibitor ) was plotted and fitted with Equation (S19) to retrieve the concentration causing 50% cell growth inhibition (RV50) value and the Hill coefficient ( n).

in vitro = details: human
[1] = Dynamic covalent ring opening with thiol 10, 1H NMR kinetics; format: physicochemical
Procedure: The dynamic covalent opening of CTO 3 with thiols yields product 9 with a disulfide and a sulfinate (Figure 3B). Consistent with short chalcogen bonds found in silico, the opening of CTO 3 was instantaneous on an NMR timescale with most thiols. To decelerate ring opening, bulky thiols were considered in combination with lowered pH to deactivate the nucleophile. With N-Ac-D-penicillamine 10, the opening of 5 mM CTO 3 in phosphate buffer/DMSO-d6 9:1 was still immediate at pD 6.7 but became detectable in ^1H NMR spectroscopy kinetics under more acidic conditions. The ring-opening rate constants k^O were estimated by fitting the initial velocities to second-order kinetics. Only lower bound rates were approximated from the earliest determined substrate conversions when reactions were still too fast despite the unfavorable conditions. At pD 5.4, dynamic covalent ring opening of CTO 3 with equimolar tertiary thiol 10 occurred with k^O > 0.49 M^–1 s^–1 and equilibrated at K = 6.0 × 10^3 M^–1 (Table 1, entry 1, Figures S4 and S5). At pD 2.7, further deceleration to k^O = 0.10 M^–1 s^–1 shifted the equilibrium to K = 500 M^–1 (Table 1, entry 2, Figures S6 and S7). […] At equilibrium, the concentration of thiol 10 further decreased slowly due to oxidation into the homodimer (Figure 3C, diamonds).
Equilibrium constants for reactions with two reactants A and B and a product C are […]
3.1.1. Dynamic Covalent Ring Opening with Thiols
General procedure A (at 5 mM): To a solution of deuterated sodium phosphate (200 mM in D 2O, pD 2.7 or 5.4, 180 mM final concentration), a stock solution of substrate (0.10 M in DMSO-d6, 5.0 mM final concentration) was added and stirred. Then a stock solution of 10 (0.10 M in DMSO- d6, 5.0 mM final concentration) was added and vigorously stirred at room temperature. The solution was transferred immediately to an NMR tube and NMR data were recorded repeatedly. The concentration of the substrate or thiol at each time plot was calculated by comparing the integrals of the peaks indicated with arrows in the figures, and plotted. The data points were fitted to obtain k1 with the Equation (S6) or (S7) using Graphpad Prism.
General procedure B (at 2 mM): To a solution of deuterated sodium phosphate (200 mM in D 2O, pD 2.7 or 5.4, 180 mM final concentration), DMSO- d6 (10% DMSO- d6 in the reaction mixture) and a stock solution of substrate (0.10 M in DMSO- d6, 2.0 mM final concentration) were added and stirred. Then a stock solution of 10 (0.10 M in DMSO- d6, 2.0 mM final concentration) was added and vigorously stirred at room temperature. The solution was transferred immediately to an NMR tube and NMR data were recorded repeatedly. The concentration of the substrate or thiol at each time plot was calculated by comparing the integrals of the peaks indicated with arrows in the figures, and plotted. The data points were fitted to obtain k1 with the Equation (S6) or (S7) using Graphpad Prism.
General procedure C (for thiosulfinates): To a solution of deuterated sodium phosphate (200 mM in D 2O, pD 5.4, 170 mM final concentration), a stock solution of substrate (0.10 M in DMSO- d6, 5.0 mM final concentration) was added and stirred. Then a stock solution of 10 (0.10 M in DMSO- d6, 10 mM final concentration) was added and vigorously stirred at room […]
data points were fitted to obtain k1 with the Equation (S14) or (S16) using Graphpad Prism. […]
3.1.2. Dependence of Ring Opening on Proticity
A mixture of deuterated phosphoric acid and NaOD (30% in D 2O), which gave pD 2.7 in D2O, was used as buffer in all solvent mixtures. To a solution of deuterated sodium phosphate (20 mM final concentration) in a mixture of D 2O and DMSO- d6 (540 μL, final D 2O content: […]
concentration) was added and stirred. Then a stock solution of 10 (0.10 M in DMSO- d6, 5.0 mM final concentration) was added and vigorously stirred at room temperature. The solution was transferred immediately to an NMR tube and 1H NMR data were recorded repeatedly. […]

HK cells, transporter 28 = test: HCHT imaging: inhibition of cytosolic delivery of CTO transporter 28; format: cell-based, Human; details: pre-incubation (P), inhibitor 1 h
Procedure: as §1, §2, §3, §4, §5

[2] = with transporter 31, co-incubation (C)

SMILES | IC50 (HK cells, transporter 31) [µM] | IC15 (HK cells, transporter 31) [µM] | RV50 (concentration needed to lower relative viability by 50%) (HeLa Kyoto cells; [2]) [µM] | viability at 7 h, 50 µM (in vitro) [%] | other results
O=S(O)CC(O)C(O)CSSCCSSCC(O)C(O)CS(=O)O (centres unmarked) [Compound 40] | 50 | 7.8 | >50 | 96 | MIC (concentration needed to reach 15% inhibition) (HK cells, transporter 31): 8 µM
C#CCNC(=O)CC[C@H](NC(=O)COCCNC(=O)O[C@H]1CSS(=O)(=O)C[C@H]1O[Si](C)(C)C(C)(C)C)C(=O)NCCOCCNC(=O)O[C@H]1CSS(=O)(=O)C[C@H]1O[Si](C)(C)C(C)(C)C [Compound 44] | – | – | – | – | RV50 (concentration needed to lower relative viability by 50%) (HeLa Kyoto cells; with transporter 28, pre-incubation (P)): 4.1 ± 0.3 µM and 4 µM; viability at 7 h, 10 µM (in vitro): 98%
NCCNC(=O)O[C@H]1CSS(=O)(=O)C[C@H]1O [Compound 39] | > 50 | 14 | >50 | 86 | –
O=C(O)c1cc(SSc2ccc([N+](=O)[O-])c(C(=O)O)c2)ccc1[N+](=O)[O-] [Compound 16, 5,5’-Dithiobis(2-nitrobenzoic acid), reference compound] | – | – | – | – | k^O, rate constant of ring opening (or equivalent for acyclic controls) ([1]; equimolar 10, rt, pD 5.4, 90% D2O/DMSO-d6, Na+ phosphate 180 mM, substrate 5 mM): 0.11 M^–1 s^–1; krel^O, rate constant of ring opening relative to 3 ([1]; pD 5.4, 90% D2O, 5 mM): <0.22; ring opening/exchange slower than CTO 3 (fold) ([1]; with thiol 10, pD 5.4): > 5 ×; viability at 7 h, 5 µM (in vitro): 89%
O=S1(=O)C[C@H](O)[C@@H](O)CS1 [Compound 15] | 22 | 1.5 | >500 | – | k^O, rate constant of ring opening ([1]; equimolar 10, rt, pD 2.7, 90% D2O/DMSO-d6, Na+ phosphate 180 mM, substrate 5 mM): >0.56 M^–1 s^–1; krel^O, rate constant of ring opening relative to 3 ([1]; pD 2.7, 90% D2O, 5 mM): >5.6; ring opening faster than 3 (fold) ([1]; with thiol 10, pD 2.7): 5 ×
O=S(O)CC(O)C(O)CSSCC(O)C(O)CS(=O)O (centres unmarked) [Compound 37] | 60 ± 20 | 6.8 | >50 | 97 | MIC (concentration needed to reach 15% inhibition) (HK cells, transporter 31): 7 µM
O=c1c2ccccc2[se]n1-c1ccccc1 [Compound 46, Ebselen, reference compound] | 49 | < 2 | >100 | 40 | MIC (concentration needed to reach 15% inhibition) (HK cells, transporter 31): <2 µM
CC(C)(C)[Si](C)(C)O[C@@H]1CS(=O)(=O)SC[C@@H]1O [Compound 6] | 5 ± 1 | < 1 | – | – | viability at 7 h, 5 µM (in vitro): 105 ± 7%
CCCNC(=O)O[C@H]1CSS(=O)(=O)C[C@H]1O[Si](C)(C)C(C)(C)C [Compound 43] | – | – | – | – | IC15 (HK cells, transporter 28; Homo sapiens, 1 h, read-out: MIC (concentration needed to reach 15% inhibition), transporter 28 5 μM): 4.1 µM; IC50 (HK cells, transporter 28; Homo sapiens, read-out: IC50 (concentration needed to reach 50% inhibition), transporter 28 5 μM): > 50 µM; MIC (concentration needed to reach 15% inhibition) (HK cells, transporter 28; transporter 28 5 μM): 4 µM (≈ 1.53 µg/mL); viability at 7 h, 10 µM (in vitro): 87%
CC(C)(C)[Si](C)(C)O[C@@H]1CS(=O)(=O)SC[C@@H]1OC(=O)NCC[N+](C)(C)C [Compound 38] | 47 | 23 | – | 37 | –
CSS(C)(=O)=O [Compound 14, reference compound] | – | – | – | – | k^O, rate constant of ring opening (or equivalent for acyclic controls) ([1]; equimolar 10, rt, pD 2.7, 90% D2O, Na+ phosphate 180 mM, substrate 2 mM): 0.52 M^–1 s^–1; krel^O, rate constant of ring opening relative to 3 ([1]; pD 2.7, 90% D2O, 2 mM): 5.2
CCN1C(=O)C2SSC1C(=O)N2CC(=O)NCCNC(=S)Nc1ccc(-c2c3ccc(=O)cc-3oc3cc(O)ccc23)c(C(=O)O)c1 (centres unmarked) [Compound 31, reference compound] | – | – | – | – | toxicity of transporters (in words) (HeLa Kyoto cells; conditions of HCHT screening (28 5 μM, 31 10 μM, 32 0.5 μM)): not toxic
